Experimental data taken from the NIST ThermoML archive (doi:10.1016/j.fluid.2017.12.031).
Where “and” joins values, the source holds several entries; their conditions need not be identical. Equal values may be shown once.

Columns and labels:
[1] = excess molar enthalpy (molar enthalpy of mixing); xn = mol fraction of the nth substance listed; details: 101 kPa, Liquid, Flow calorimetry
[2] = 313.15 K; Liquid; Closed cell (Static) method

C=CCCCC [hex-1-ene] + CCCCCO
excess molar enthalpy [kcal/mol], [1]
Details	298.15 K	313.15 K
x2 = 0	0	0
x2 = 0.0506	–	0.121
x2 = 0.0507	0.095	–
x2 = 0.1005	–	0.159
x2 = 0.1006	0.119	–
x2 = 0.152	–	0.179
x2 = 0.1522	0.134	–
x2 = 0.2027	–	0.192
x2 = 0.203	0.143	–
x2 = 0.2528	–	0.195
x2 = 0.2531	0.148	–
x2 = 0.3021	–	0.198
x2 = 0.3022	0.151	–
x2 = 0.3526	–	0.193
x2 = 0.353	0.15	–
x2 = 0.4026	–	0.19
x2 = 0.403	0.146	–
x2 = 0.4519	–	0.183
x2 = 0.4523	0.138	–
x2 = 0.5026	–	0.172
x2 = 0.503	0.129	–
x2 = 0.5524	–	0.159
x2 = 0.5529	0.118	–
x2 = 0.6035	–	0.144
x2 = 0.604	0.106	–
x2 = 0.6519	–	0.127
x2 = 0.6523	0.0912	–
x2 = 0.7019	0.0776	0.109
x2 = 0.7526	0.0629	0.0888
x2 = 0.8008	0.0478	–
x2 = 0.8025	–	0.0681
x2 = 0.8482	0.0348	–
x2 = 0.8517	–	0.0505
x2 = 0.9019	–	0.0316
x2 = 0.902	0.0208	–
x2 = 0.9513	0.00908	0.0139

CCCCCO [pentan-1-ol]
Details	vapor or sublimation pressure
[2]	0.913 kPa and 0.918 kPa

CCCCCO [pentan-1-ol] + C=CCCCC
[1], x1 = 1
Details	excess molar enthalpy [kcal/mol]
298.15 K	0
313.15 K	0

CCCCCO [pentan-1-ol] + Cc1ccc(C)c(C)c1
[1], x1 = 1
Details	excess molar enthalpy [kcal/mol]
298.15 K	0
313.15 K	0

CCCC(C)O (stereo not drawn) [pentan-2-ol]
Details	vapor or sublimation pressure
[2]	2.281 kPa and 2.268 kPa

CCCC(C)O (stereo not drawn) [pentan-2-ol] + C=CCCCC
excess molar enthalpy [kcal/mol], [1]
Details	298.15 K	313.15 K
x1 = 0.05	–	0.141
x1 = 0.0503	0.117	–
x1 = 0.0999	0.158	0.196
x1 = 0.1511	0.183	–
x1 = 0.1512	–	0.229
x1 = 0.2015	0.202	–
x1 = 0.2017	–	0.254
x1 = 0.2513	0.216	–
x1 = 0.2516	–	0.266
x1 = 0.3027	0.225	–
x1 = 0.3028	–	0.277
x1 = 0.3512	0.23	–
x1 = 0.3513	–	0.282
x1 = 0.4032	0.234	–
x1 = 0.4034	–	0.282
x1 = 0.4509	–	0.278
x1 = 0.4525	0.234	–
x1 = 0.5014	–	0.271
x1 = 0.503	0.23	–
x1 = 0.5513	–	0.262
x1 = 0.5529	0.222	–
x1 = 0.6005	–	0.248
x1 = 0.6018	0.21	–
x1 = 0.6523	0.194	0.227
x1 = 0.702	0.175	0.205
x1 = 0.751	0.151	0.18
x1 = 0.8004	0.123	–
x1 = 0.8012	–	0.149
x1 = 0.85	0.0935	–
x1 = 0.8506	–	0.115
x1 = 0.9007	0.0574	–
x1 = 0.9012	–	0.0742
x1 = 0.9507	0.0268	–
x1 = 0.9509	–	0.0371
x1 = 1	0	0

CCCC(C)O (stereo not drawn) [pentan-2-ol] + Cc1ccc(C)c(C)c1
[1], x1 = 1
Details	excess molar enthalpy [kcal/mol]
298.15 K	0
313.15 K	0
